Square brackets hold non-standard residues; d marks the D form. Peptide text beside a SMILES is read from it. * marks the point of attachment. X1 = O=C(O)CC[C@H](NC(=O)N[C@@H](CCCCNC(=O)CCCCCCC(=O)*)C(=O)O)C(=O)O; DOTAGA = O=C(O)CN1CCN(CC(=O)O)CCN(C(CCC(=O)*)C(=O)O)CCN(CC(=O)O)CC1; dPhe(4-NH2) = Nc1ccc(C[C@@H](N)C(=O)O)cc1; dTyr(3-I) = N[C@H](Cc1ccc(O)c(I)c1)C(=O)O; Phe(4-NH2) = Nc1ccc(C[C@H](N)C(=O)O)cc1; d2Nal = N[C@H](Cc1ccc2ccccc2c1)C(=O)O
Columns and labels:
[1] = biological target: T1, PSMA (Homo sapiens, UniProt Q04609); experiment: Internalization of radiolabeled PSMA inhibitors into cells (PMPA blockade); format: cell-based; set-up: endogenous in cells; LNCaP is named only for the xenografts; conditions: 177Lu-labeled inhibitors, 37°C; reference basis of the % not stated
Description: The ^177Lu-labeled compounds, for in vitro studies, were prepared as previously described (Sosabowski, J.K. and S.J. Mather, Conjugation of DOTA-like chelating agents to peptides and radiolabeling with trivalent metallic isotopes. Nat. Protocols, 2006. 1(2): p. 972-976) with minor modifications and used without further purification. In short, to a reaction volume of 10 µL 1.0 M NH4OAc buffer pH = 5.9 was added 0.75 to 1.0 nmol tracer (7.5 to 10 µL), 10 to 40 MBq ^177LuCl3 (Specific Activity (AS) > 3000 GBq/mg, 740 MBq/mL, 0.04 M HCl, ITG, Garching, Germany) and finally filled up to 100 µL with trace-pure Water (Merck, Darmstadt, Germany). The reaction mixture was heated for 30 min at 95°C and the radiochemical purity was determined using Radio-TLC.
[…] Each well was treated with either 25 µL of either DMEM-F12 (5% BSA) or a 100 µM PMPA solution for blockade. Next, 25 µL of the respective ^68Ga-and ^177Lu-labeled PSMA inhibitors (2.0 nM / 5.0 nM) was added and the cells incubated at 37°C for 5, 15, 30 and 60 min, respectively. The experiment was terminated by placing the 24-well plate on ice for 3 min and consecutive removal of the medium. Each well was rinsed with 250 µL HBSS and the fractions from these first two steps combined, representing the amount of free radioligand. Removal of surface bound activity was accomplished by incubation of the cells with 250 µL of ice-cold PMPA (10 µM in PBS) solution for 5 min and rinsed again with another 250 µL of ice-cold PBS. The internalized activity was determined by incubation of the cells in 250 µL 1.0 M NaOH and the combination with the fraction of a subsequent wash step with 250 µL 1.0 M NaOH. Each experiment (control and blockade) was performed in triplicate for each time point. Free, surface bound and internalized activity was quantified in a γ-counter.

[2] = biological target: T1, PSMA; experiment: Determination of IC50: competitive binding against ([125I]I-BA)KuE on cells; set-up: endogenous in cells; LNCaP is named only for the xenografts; conditions: for IC50: natLu complexes, displacement of ([125I]I-BA)KuE, 60 min on ice, HBSS (1% BSA)
Description: The corresponding ^natLu^III-complexes were prepared from a 2 mM aqueous solution of the PSMA inhibitor with a 2.5 molar excess of LuCl3 (20 mM solution), heated to 95 °C for 30 min. After cooling, the ^natLu^III-chelate formation was confirmed using HPLC and MS. […] Calculated monoisotopic mass (C67H92N11O23 Lu) = 1,593.6 found: m/z = 1,595.0 [M+H]^+, 798.2 [M+2H]^2+. [^natLu]DOTAGA-(4-NH2)f-y-nal-k-KuE ([^natLu]PSMA-5): HPLC (10 to 60% B in 15 min.): tR = 9.0 min K' = 3.5. Calculated monoisotopic mass (C76H102N13O24 Lu) = 1,755.7 found: m/z = 1,756.4 [M+H]^+, 879.0 [M+2H]^2+. [^natLu]DOTAGA-(4-NH2)F-y-nal-k-KuE ([^natLu]PSMA-6): HPLC (10 to 60% B in 15 min.): tR = 9.1 min K' = 3.6. Calculated monoisotopic mass (C76H102N13O24 Lu) = 1,755.7 found: m/z = 1,756.6 [M+H]^+, 878.8 [M+2H]^2+. [^natLu]DOTAGA-y-nal-k(Suc-(HO-δ-orn-γ-EuE))-OH ([^natLu]PSMA-7): HPLC (10 to 60 % B in 15 min): tR = 7.8 min K' = 2.9. Calculated monoisotopic mass (C67H89N12O26 Lu): 1,652.5 found: m/z = 1,653.9 [M+H]^+. [^natLu]DOTAGA-(4-NH2)f-y-nal-k(Suc-(HO-δ-orn-γ-EuE))-OH ([^natLu]PSMA-8): HPLC (10 to 60 % B in 15 min): tR = 7.3 min K' = 2.7. Calculated monoisotopic mass (C67H99N14O27Lu): 1,814.6 found: m/z = 1,815.9 [M+H]^+, 908.3 [M+2H]^2+. [^natLu]DOTAGA-(4-NH2)F-y-nal-k(Suc-(HO-δ-orn-γ-EuE))-OH ([^natLu]PSMA-9): HPLC (10 to 60 % B in 15 min): tR = 7.2 min K' = 2.6. Calculated monoisotopic mass (C67H99N14O27Lu): 1,814.6 found: m/z = 1,815.6 [M+H]^+, 908.3 [M+2H]^2+. [^natLu]DOTAGA-y-nal-k(Glut-(l-f)-KuE) ([^natLu]PSMA-10): HPLC (25 to 55% B in 15 min): tR = 10.6 min K' = 4.9. Calculated monoisotopic mass (C73H94IN12O24Lu): 1,825.5 found: m/z = 1,826.5 [M+H]^+, 913.8 [M+2H]^2+. [^natLu]DOTAGA-(4-NH2)f-y-nal-k(Glut-(l-f)-KuE) ([^natLu]PSMA-11): HPLC (10 to 60% B in 20 min): tR = 9.7 min K' = 3.9. Calculated monoisotopic mass (C82H104IN14O25Lu): 1,986.6 found: m/z = 1,987.5 [M+H]^+, 994.3 [M+2H]^2+.
The reaction solution was incubated for 10 min at RT, loaded on a cartridge and rinsed with 10 mL water (C18 Sep Pak Plus cartridge, preconditioned with 10 mL MeOH and 10 mL water). After elution with 2.0 mL of a 1:1 mix (v/v) of EtOH/MeCN, the radioactive solution was evaporated to dryness under a gentle nitrogen stream and treated with 200 µL TFA for 30 min with subsequent evaporation of TFA.
After removal of the culture medium, the cells were treated once with 500 µL of HBSS (Hank's balanced salt solution, Biochrom, Berlin, Germany, with addition of 1% bovine serum albumin (BSA)) and left 15 min on ice for equilibration in 200 µL HBSS (1% BSA). […] All experiments were performed at least three times for each concentration. After 60 min incubation on ice, the experiment was terminated by removal of the medium and consecutive rinsing with 200 µL of HBSS. The media of both steps were combined in one fraction and represent the amount of free radioligand. Afterwards, the cells were lysed with 250 µL of 1.0 M NaOH and united with the 200 µL HBSS of the following wash step. Quantification of bound and free radioligand was accomplished in a γ-counter.

T1 sequence (Q04609 whole entry): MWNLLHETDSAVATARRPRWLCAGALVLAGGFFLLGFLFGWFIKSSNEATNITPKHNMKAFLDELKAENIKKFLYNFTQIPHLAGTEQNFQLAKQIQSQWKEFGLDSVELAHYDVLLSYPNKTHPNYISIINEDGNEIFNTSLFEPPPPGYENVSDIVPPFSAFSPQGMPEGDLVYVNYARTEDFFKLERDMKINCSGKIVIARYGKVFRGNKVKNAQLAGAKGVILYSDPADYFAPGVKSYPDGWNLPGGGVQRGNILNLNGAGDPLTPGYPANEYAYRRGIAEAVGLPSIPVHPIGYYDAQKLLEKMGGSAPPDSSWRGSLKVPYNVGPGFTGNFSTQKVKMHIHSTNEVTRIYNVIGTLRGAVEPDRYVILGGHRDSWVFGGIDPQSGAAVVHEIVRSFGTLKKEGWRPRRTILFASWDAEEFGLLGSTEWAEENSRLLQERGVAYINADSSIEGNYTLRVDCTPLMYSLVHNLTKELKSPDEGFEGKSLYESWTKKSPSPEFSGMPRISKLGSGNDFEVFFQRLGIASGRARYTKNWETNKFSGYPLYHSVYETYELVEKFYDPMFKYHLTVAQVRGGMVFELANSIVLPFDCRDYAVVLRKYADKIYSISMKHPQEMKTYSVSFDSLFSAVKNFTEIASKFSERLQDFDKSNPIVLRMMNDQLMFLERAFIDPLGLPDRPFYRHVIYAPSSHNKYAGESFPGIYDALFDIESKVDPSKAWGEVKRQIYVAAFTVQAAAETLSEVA

| Internalization [%] [1] [%] | IC50 [2] [nM] | affinity, fold higher than [Lu]PSMA DKFZ 617 ([2]; relative to [Lu]PSMA DKFZ 617) | affinity, fold higher than [Lu]PSMA I&T ([2]; relative to [Lu]PSMA I&T) | SMILES |
| --- | --- | --- | --- | --- |
| 122.15 ± 1.3 | 2.3 ± 0.6 |  |  | Nc1ccc(C[C@@H](NC(=O)CCC(C(=O)O)N2CCN(CC(=O)O)CCN(CC(=O)O)CCN(CC(=O)O)CC2)C(=O)N[C@H](Cc2ccc(O)c(I)c2)C(=O)N[C@H](Cc2ccccc2)C(=O)N[C@H](CCCCNC(=O)CCCCCCC(=O)NCCCC[C@H](NC(=O)N[C@@H](CCC(=O)O)C(=O)O)C(=O)O)C(=O)O)cc1 (stereo partly drawn) [[^nat/177Lu]PSMA-2, DOTAGA-(4-NH2)f-(l-y)-f-k-KuE, metal not drawn] ({DOTAGA}-[dPhe(4-NH2)][dTyr(3-I)][dF][dK](X1)-OH) |
| 166.92 ± 2.4 | 2.8 ± 0.3 |  |  | Nc1ccc(C[C@H](NC(=O)CCC(C(=O)O)N2CCN(CC(=O)O)CCN(CC(=O)O)CCN(CC(=O)O)CC2)C(=O)N[C@H](Cc2ccc(O)c(I)c2)C(=O)N[C@H](Cc2ccccc2)C(=O)N[C@H](CCCCNC(=O)CCCCCCC(=O)NCCCC[C@H](NC(=O)N[C@@H](CCC(=O)O)C(=O)O)C(=O)O)C(=O)O)cc1 (stereo partly drawn) [[^nat/177Lu]PSMA-3, DOTAGA-(4-NH2)F-(l-y)-f-k-KuE, metal not drawn] ({DOTAGA}-[Phe(4-NH2)][dTyr(3-I)][dF][dK](X1)-OH) |
| 71.7 ± 0.7 | 2.1 ± 0.8 |  |  | O=C(O)CC[C@H](NC(=O)N[C@@H](CCCCNC(=O)CCCCCCC(=O)NCCCC[C@@H](NC(=O)[C@@H](Cc1ccc2ccccc2c1)NC(=O)[C@@H](Cc1ccc(O)cc1)NC(=O)CCC(C(=O)O)N1CCN(CC(=O)O)CCN(CC(=O)O)CCN(CC(=O)O)CC1)C(=O)O)C(=O)O)C(=O)O (stereo partly drawn) [[^nat/177Lu]PSMA-4, DOTAGA-y-nal-k-KuE, metal not drawn, reference compound] |
| 108.8 ± 2.5 | 1.1 ± 0.1 | more than 3 fold | around 7 fold | Nc1ccc(C[C@H](NC(=O)CCC(C(=O)O)N2CCN(CC(=O)O)CCN(CC(=O)O)CCN(CC(=O)O)CC2)C(=O)N[C@H](Cc2ccc(O)cc2)C(=O)N[C@H](Cc2ccc3ccccc3c2)C(=O)N[C@H](CCCCNC(=O)CCCCCCC(=O)NCCCC[C@H](NC(=O)N[C@@H](CCC(=O)O)C(=O)O)C(=O)O)C(=O)O)cc1 (stereo partly drawn) [[^nat/177Lu]PSMA-6, DOTAGA-(4-NH2)F-y-nal-k-KuE, metal not drawn] ({DOTAGA}-[Phe(4-NH2)][dY][d2Nal][dK](X1)-OH) |
| 118.6 ± 0.5 | 6.1 ± 1.6 |  |  | O=C(O)CC[C@H](NC(=O)N[C@@H](CCCCNC(=O)[C@@H](Cc1ccc(I)cc1)NC(=O)CCCC(=O)NCCCC[C@@H](NC(=O)[C@@H](Cc1ccc2ccccc2c1)NC(=O)[C@@H](Cc1ccc(O)cc1)NC(=O)CCC(C(=O)O)N1CCN(CC(=O)O)CCN(CC(=O)O)CCN(CC(=O)O)CC1)C(=O)O)C(=O)O)C(=O)O (stereo partly drawn) [[^nat/177Lu]PSMA-10, DOTAGA-y-nal-k(Glut-(l-f)-KuE), metal not drawn, reference compound] |

From EP3494999A1, “PSMA LIGANDS FOR IMAGING AND ENDORADIOTHERAPY” (Technische Universität München, priority 2017, dated 2019)
